One test concerns MMP1 expression by SFs. As to the kind of experiment: 'MMP assay': MMP1 expression by 'complex trigger' activated synovial fibroblasts (MMP1 ELISA). The class given is cell-based, human. The conditions noted are these: Homo sapiens, Fibroblast, RASFs, 48 hrs. Background: In an ELISA, binding on a coated surface is turned into a signal by an enzyme label.
In test [1] the test system is TNFα release by human PBMCs. The test is described as follows: Cytokine release by LPS-stimulated human PBMCs (TNFα ELISA). The class given is cell-based. The conditions noted are these: PBMC, LPS 1 μg/mL, 24 hr. Here is the method: Human peripheral blood mononuclear cells (PBMCs) are isolated from “buffy coats” prepared from the blood of healthy volunteers, isolated essentially according to method of Bøyum (1984). In brief, buffy coat is diluted 1:1 with 1×PBS (Gibco) and 30 mL is carefully put on top of 20 mL Lymphoprep™ (Lucron Bioproducts) in 50 mL Falcon tubes. After centrifugation (35 min, 400 g, 18° C.) the mononuclear cells are collected from the white interphase and washed 3 times with 1×PBS by resuspending and centrifugation (10 min, 200 g). Isolated PBMCs are finally resuspended in RPMI 1640 (Cat. No. 21875, Gibco) that is supplemented with 10% heat-inactivated FBS (Hyclone).
For the assay PBMCs are seeded at 2.5E6 cells/mL in 160 μL in 96-well plates (Nunc). Serial dilution of the test compounds are made first in DMSO (Sigma) and then diluted 50-fold in M199 medium (Gibco) containing 1% heat-inactivated FBS. Compounds are further 1/10 diluted in the assay plates to obtain final DMSO concentration of 0.2%. Cells are preincubated with the compounds for 1 hr at 37° C., 5% CO2. Then, cells are stimulated with LPS (Escherichia coli serotype 026:B6, Cat. No. L2654, Sigma) that is added in a volume of 20 μL to a final concentration of 1 μg/mL and cells are further cultured for 24 hr. The plates are centrifuged and the supernatant is collected and stored at −80° C. until analysis of appropriate dilutions in ELISAs.
The following 384-well chemiluminescent ELISA protocol was developed to measure TNFα levels in the supernatant: White Lumitrac 600 384-well plates (Greiner) are coated with (40 μL/well) anti-TNFα capture antibody (Cat. No. 551220, BD Pharmingen) that is diluted to 1 μg/mL in 1×PBS (Gibco). After overnight incubation at 4° C., plates are washed with 1×PBS (80 g NaCl, 2 g KCl (Sigma), 11.5 g Na2HPO4.7H2O and 2 g KH2PO4 in 10 L milliQ; pH 7.4) and blocked with 100 μL/well buffer B (1×PBS containing 1% BSA (Sigma), 5% sucrose (Sigma) and 0.05% NaN3 (Sigma)). After 4 hr incubation at RT, blocking buffer is removed and plates are washed once with PBST (1×PBS with 0.05% Tween-20 (Sigma)). Then, 40 μL of sample is transferred to the ELISA plates and plates are incubated at 4° C. Next day, plates are washed 3 times (twice with PBST and once with PBS) and 35 μL/well biotinylated anti-TNFα antibody (Cat. No. 554511, BD Pharmingen) diluted first to a concentration of 250 ng/ml in buffer D (1×PBS with 1% BSA) is added. After 2 h of incubation at RT, plates are washed as described above and 35 μL/well of a 1/2000 dilution of streptavidin-HRP conjugate (Cat. No. SNN2004, Biosource) in buffer D is added. After 45 min, plates are washed as described above and incubated for 5 min with 50 μL/well BM Chemiluminescence ELISA Substrate POD (Roche). Readout is performed on the Luminoscan Ascent Luminometer (Labsystems) with an integration time of 100 msec delivering raw data (RLU: relative luminescence units). The following controls are included in the experiments, a maximal signal control, in which the cells are activated by LPS but only the 0.2% DMSO vehicle (and thus no compound) is added. This control indicates the maximal level of TNFα that can be achieved in the test. A minimal signal control is also included in these experiments. Here, cells are not triggered. This control returns the basal TNFα levels produced by the PBMCs. The percent inhibition (PIN) of the TNFα release, achieved by the compounds is then calculated based on the RLU data returned by the ELISA with following formula: 100−[((TNFα level compound X at concentration Y−minimal TNFα levels)/(maximal TNFα levels−minimal TNFα levels))×100]. Where compounds are tested at 8 concentrations (1/3 serial dilution), EC50-values can be calculated by curve fitting of the means of the PIN data achieved for a compound at each test concentration. […]

A further test concerns the target T1, MAPKAPK5 (Homo sapiens, UniProt Q8IW41).
T1 construct: 1 mU MAPKAP-K5
T1 sequence (Q8IW41 1-473): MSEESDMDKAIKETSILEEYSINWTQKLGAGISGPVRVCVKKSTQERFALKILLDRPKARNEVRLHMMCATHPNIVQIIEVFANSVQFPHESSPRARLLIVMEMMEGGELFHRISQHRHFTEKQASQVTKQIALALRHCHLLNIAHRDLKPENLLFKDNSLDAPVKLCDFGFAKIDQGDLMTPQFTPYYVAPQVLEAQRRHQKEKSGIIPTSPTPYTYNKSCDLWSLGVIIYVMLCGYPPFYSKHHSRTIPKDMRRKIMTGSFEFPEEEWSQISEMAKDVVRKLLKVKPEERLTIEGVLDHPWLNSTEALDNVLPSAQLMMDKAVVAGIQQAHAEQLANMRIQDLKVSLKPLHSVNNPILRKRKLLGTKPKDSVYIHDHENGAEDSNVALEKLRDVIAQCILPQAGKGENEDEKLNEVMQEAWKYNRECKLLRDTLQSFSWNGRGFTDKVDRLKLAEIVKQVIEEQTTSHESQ
The test is described as follows: MAPKAP-K5 assay (FlashPlate, 33P-ATP). The class given is biochemical. To be noted: 0.6 μM ATP, 30 minutes at room temperature. Here is the method:
3 μM MAPKAP-K5 peptide substrate

The structures appear in SMILES notation.

As for `NC(=O)c1coc(-c2cnc(Nc3ccc(N4CCOCC4)cc3)c3nccn23)c1` [Compound 179, 5-[8-(4-Morpholin-4-yl-phenylamino)-imidazo[1,2-a]pyrazin-5-yl]-furan-3-carboxylic acid amide], the values for the EC50 (with MMP1 expression by SFs; in test [1]) were 101 to 500 nM and more than 1000 nM, respectively.
Taken in the same sequence, the figures for `O=c1cc(-c2cnc(Nc3ccc(N4CCOCC4)cc3)c3nccn23)cc[nH]1` [Compound 85, 4-[8-(4-Morpholin-4-yl-phenylamino)imidazo[1,2-a]pyrazin-5-yl]-1H-pyridin-2-one] were 501 to 1000 nM and more than 1000 nM.
Taken in the same sequence, the figures for `c1cn2c(-c3cn[nH]c3)cnc(Nc3ccc(N4CCOCC4)cc3)c2n1` [Compound 1, (4-Morpholin-4-yl-phenyl)-[5-(1H-pyrazol-4-yl)-imidazo[1,2-a]pyrazin-8-yl]-amine] were more than 1000 nM and more than 1000 nM.
Taken in the same sequence, the figures for `NC(=O)c1cc(-c2cnc(Nc3ccc(N4CCOCC4)cc3)c3nccn23)cs1` [Compound 177, 4-[8-(4-Morpholin-4-yl-phenylamino)-imidazo[1,2-a]pyrazin-5-yl]-thiophene-2-carboxylic acid amide] were 101 to 500 nM and more than 1000 nM.
`O=C1NCc2cc(-c3cnc(Nc4ccc(N5CCOCC5)cc4)c4nccn34)ccc21` [Compound 178, 5-[8-(4-Morpholin-4-yl-phenylamino)-imidazo[1,2-a]pyrazin-5-yl]-2,3-dihydro-isoindol-1-one]: the EC50 is 101 to 500 nM with MMP1 expression by SFs and 1 to 100 nM in test [1].
Consider `NC(=O)c1ccc(-c2cnc(Nc3ccc(N4CCOCC4)cc3)c3nccn23)cc1` [Compound 13], for which the EC50 in the test on MMP1 expression by SFs is 501 to 1000 nM; in test [1], more than 1000 nM.
Taken in the same sequence, the figures for `NC(=O)c1cc(-c2cnc(Nc3ccc(N4CCOCC4)cc3)c3nccn23)co1` [Compound 203] were 501 to 1000 nM and more than 1000 nM.
Taken in the same sequence, the figures for `CN1CCN(c2ccc(Nc3ncc(-c4cc[nH]c(=O)c4)n4ccnc34)cc2)CC1` [Compound 102, 4-{8-[4-(4-Methylpiperazin-1-yl)-phenylamino]imidazo[1,2-a]pyrazin-5-yl}-1H-pyridin-2-one] were more than 1000 nM and more than 1000 nM.
For `NC(=O)c1ccc(-c2cnc(Nc3ccc(N4CCOCC4)cc3)c3nccn23)s1` [Compound 152], the EC50 (in the test on MMP1 expression by SFs; in test [1]) was 101 to 500 nM throughout.
On to `CCN(CCO)c1ccc(Nc2ncc(-c3cn[nH]c3)n3ccnc23)c(C)c1` [Compound 12], for which, on MAPKAPK5, the IC50 was more than 1000 nM. For the same molecule, in the test on MMP1 expression by SFs, the EC50 is more than 1000 nM.
In turn, `CCN(CCO)c1ccc(Nc2ncc(-c3ccc(N)cc3)n3ccnc23)cc1` [Compound 6] showed an IC50 on MAPKAPK5 of more than 1000 nM. The EC50 with MMP1 expression by SFs is more than 1000 nM.
Regarding `NC(=O)c1cccc(Nc2ncc(-c3cn[nH]c3)n3ccnc23)c1` [Compound 10], on MAPKAPK5, the IC50 is more than 1000 nM. Besides, the EC50 in the test on MMP1 expression by SFs is more than 1000 nM.
`CN(C)c1cc(-c2cnc(Nc3ccc(N4CCOCC4)cc3)c3nccn23)ccn1` [Compound 111, [5-(2-Dimethylamino-pyridin-4-yl)-imidazo[1,2-a]pyrazin-8-yl]-(4-morpholin-4-yl-phenyl)-amine] came in with an IC50 against MAPKAPK5 of more than 1000 nM. Besides, the EC50 with MMP1 expression by SFs was more than 1000 nM.
`CCN(CC)CCNC(=O)c1ccc(Nc2ncc(-c3cn[nH]c3)n3ccnc23)cc1OC` [Compound 48] returned an IC50 on MAPKAPK5 of more than 1000 nM. Besides, the EC50 in the test on MMP1 expression by SFs was more than 1000 nM.
At MAPKAPK5, `CC(C)N1CCN(c2ccc(Nc3ncc(-c4coc(C(N)=O)c4)n4ccnc34)cn2)CC1` [Compound 209, 4-{8-[6-(4-Isopropyl-piperazin-1-yl)-pyridin-3-ylamino]-imidazo[1,2-a]pyrazin-5-yl}-furan-2-carboxylic acid amide] registered an IC50 of 101 to 500 nM. Also, in the test with MMP1 expression by SFs, the concentration for a half-maximal effect (EC50) was more than 1000 nM.
Turning to `NC(=O)c1cc(-c2cnc(Nc3ccc(NC(=O)c4ccccc4)nc3)c3nccn23)cs1` [Compound 195], the IC50 on MAPKAPK5 was more than 1000 nM. The concentration for a half-maximal effect (EC50) with MMP1 expression by SFs was more than 1000 nM.
`CCN(CC)CCNC(=O)c1ccc(Nc2ncc(-c3ccc(CC(=O)O)cc3)n3ccnc23)cc1` [Compound 76] had an IC50 on MAPKAPK5 of more than 1000 nM. The EC50 with MMP1 expression by SFs is more than 1000 nM.
At MAPKAPK5, `CCN(CC)CCNC(=O)c1ccc(Nc2ncc(-c3ccncc3)n3ccnc23)cc1` [Compound 86] yielded an IC50 of more than 1000 nM. In the test with MMP1 expression by SFs, the EC50 was more than 1000 nM.
`Cc1n[nH]cc1-c1cnc(Nc2ccc(C3CCN(CC(N)=O)CC3)cc2)c2nccn12` [Compound 225, 2-(4-{4-[5-(3-Methyl-1H-pyrazol-4-yl)imidazo[1,2-a]pyrazin-8-ylamino]phenyl}piperidin-1-yl)acetamide] gave an IC50 at MAPKAPK5 of 501 to 1000 nM. For the same molecule, the EC50 in the test with MMP1 expression by SFs is more than 1000 nM.
In turn, `O=C(Nc1ccc(Nc2ncc(-c3cn[nH]c3)n3ccnc23)cn1)c1ccccc1` [Compound 183, N-{5-[5-(1H-Pyrazol-4-yl)imidazopyrazin-8-ylamino]pyridin-2-yl}benzamide] displayed an IC50 at MAPKAPK5 of more than 1000 nM. Also, the EC50 with MMP1 expression by SFs lay in the range of 101 to 500 nM.
Taken in the same sequence, the figures for `c1cn2c(-c3cn[nH]c3)cnc(Nc3ccc(N4CCOCC4)cn3)c2n1` [Compound 208, N-(5-Morpholinopyridin-2-yl)-5-(1H-pyrazol-4-yl)imidazo[1,2-a]pyrazin-8-amine] were more than 1000 nM and more than 1000 nM.
Taken in the same sequence, the figures for `O=c1cc(-c2cnc(Nc3ccc(N4CCOCC4)cc3)c3nccn23)cc(C(F)(F)F)[nH]1` [Compound 161, 6-Trifluoromethyl-4-[8-(4-morpholin-4-ylphenylamino)imidazo[1,2-a]pyrazin-5-yl]-1H-pyridin-2-one] were more than 1000 nM and more than 1000 nM.
At MAPKAPK5, `COc1cc(Nc2ncc(-c3cn[nH]c3)n3ccnc23)ccc1C(=O)NCc1ccccc1` [Compound 182] showed an IC50 of more than 1000 nM. Besides, the EC50 in the test on MMP1 expression by SFs was more than 1000 nM.
Regarding `O=C(NCCO)c1ccc(Nc2ncc(-c3cn[nH]c3)n3ccnc23)cc1` [Compound 61], the IC50 against MAPKAPK5 lay within 501 to 1000 nM. Besides, the EC50 in the test with MMP1 expression by SFs is more than 1000 nM.
Taken in the same sequence, the figures for `CN1CCN(C(=O)c2ccc(Nc3ncc(-c4cn[nH]c4)n4ccnc34)cc2)CC1` [Compound 57] were 101 to 500 nM and more than 1000 nM.

A word on the EC50: it is the concentration that produces a half-maximal response. A word on the IC50: it is the point on the concentration scale where inhibition reaches its midpoint.
